# Measurements from a melting point compilation (Tetko et al.).
row,melting point [°C],SMILES
1,256 to 258,CCN1N=C(C(=O)O)CC1=O
2,108 to 110,CCc1ccc(-c2csc(NC(=O)C(C)Cl)n2)cc1 (configuration not stated)
3,128 to 130,CCOC(=O)CO/N=C(\C(=O)O)c1cc[nH]n1
4,179 to 181,O=C1Cn2ccnc2CN1
5,229 to 231,O=C(O)c1csc2cncn12
6,146 to 148,COc1cc(C)c(C(=O)O)cc1OC
7,139 to 141,Cc1ccc(-c2nc(CC(=O)O)cs2)cc1
8,83 to 85,Nc1ccnn1Cc1ccc(Br)s1
9,194 to 196,CC1(c2ccc(F)cc2F)NC(=O)NC1=O (configuration not stated)
10,222 to 224,O=C(Nc1ccc(O)cc1)c1cccc([N+](=O)[O-])c1
11,101 to 103,CCOC(=O)/C(C#N)=C\Nc1ccc(OC(F)F)cc1
12,203 to 205,CCC(C)C(NC1=NS(=O)(=O)c2ccccc21)C(=O)O (configuration not stated)
13,99 to 101,CC(C)(C)OC(=O)NC1CCCC1CN (configuration not stated)
14,78 to 80,CSc1ccncc1N
15,127 to 129,O=C(O)COc1ccc(Oc2ccccc2)cc1
16,157 to 159,COC(=O)c1sc2cccc(F)c2c1CBr
17,174 to 176,NS(=O)(=O)c1ccc(C(F)(F)F)cn1
18,164 to 166,CC(NC(=O)c1cc(-c2ccccc2)on1)C(=O)O (configuration not stated)
19,155 to 157,CC(=O)c1cccc(-n2cnnn2)c1
20,179 to 181,O=C(Nc1ccccc1)c1ccc(CBr)cc1
21,71 to 73,NCc1cc(OCC(F)F)ccn1
22,129 to 131,O=S(=O)(Cl)c1cnc2ccsc2c1
23,53 to 55,CCOC(=O)c1nnc2ccccc2c1Cl
24,243 to 245,Cc1ccc2[nH]c(C(=O)O)cc2c1C
25,225 to 227,CN(C)c1ccc(C(=O)O)cn1

row,melting point [°C],SMILES
1,257 to 259,Nc1cc(Cl)c(S(N)(=O)=O)cc1[N+](=O)[O-]
2,84 to 86,CCCCCCCCCCCCSc1nc2sc3c(c2c(=O)n1-c1ccccc1)CCCC3
3,142 to 144,CC(N)c1ccc(NC(=O)NC2CC2)cc1 (configuration not stated)
4,179 to 181,O=C(O)c1ccc(CS)cc1
5,178 to 180,Cc1ccn(-c2ccc(C(=O)O)cc2)n1
6,117 to 119,Cc1ccc(CNC(=O)CCl)cc1
7,46 to 48,O=C(CCc1ccccc1Cl)c1ccccc1
8,167 to 169,COc1cccc(-n2cnnc2S)c1
9,139 to 141,O=C(O)C1CCCN1C(=O)Cc1cccs1 (configuration not stated)
10,266 to 268,O=C(O)CNc1ccc(C(=O)O)cc1
11,191 to 193,COc1ccc(CNC(N)=S)cc1OC
12,66 to 68,CC(=O)c1sc(C(C)(C)C)nc1C
13,184 to 186,O=C(O)CCC(=O)c1ccc2ccc3cccc4ccc1c2c34
14,82 to 84,COc1cc(F)c(S(=O)(=O)Cl)cc1OC
15,102 to 104,CS(=O)(=O)c1cccc(Cl)c1C=O
16,47 to 49,CCNC(=O)c1cccnc1Cl
17,155 to 157,CCC(C)NS(=O)(=O)c1cccc(C(=O)O)c1 (configuration not stated)
18,168 to 169,O=C(CCl)N1CCCC1c1ccc2c(c1)OCCO2 (configuration not stated)
19,239 to 241,CC(=O)Nc1ccc(C(N)=S)cc1
20,50 to 52,Nc1cc(OCC(F)(F)F)cc(OCC(F)(F)F)c1
21,297 to 299,O=C(O)c1ccc(S(=O)(=O)Nc2ccncc2)cc1
22,299 to 301,Nc1cn[nH]c(=O)c1Cl
23,82 to 84,CCC1(CC)CC(=O)NC1=O
24,61 to 63,CC(C)(C)OC(=O)N1CC2CCC(O)C2C1 (configuration not stated)
25,69 to 71,Cc1ccc(Oc2ccc(C#N)cc2)cc1

# The next lines start with the molecule.
row,SMILES,melting point [°C]
1,O=C(CCl)c1ccc(CC(=O)N2CCOCC2)s1,136 to 138
2,NC(=O)CCC(C(=O)O)N1C(=O)c2ccccc2C1=O (configuration not stated),161 to 163
3,N#CCc1cc(Br)c2c(c1)C=CCO2,79 to 81
4,Cc1cccc(/C=C/c2cc(C(=O)O)c3cc(Br)ccc3n2)c1,286 to 288
5,Cc1ccc(C#N)c(=O)n1C,129 to 131
6,Cc1nc(Cl)cc(-n2ccnc2)n1,114 to 116
7,O=C(O)CCNC(=O)c1ccsc1,235 to 237
8,CSc1snc(O)c1C#N,230 to 232
9,CCOC(=O)/C(C#N)=C/Nc1cc(Cl)ccc1OC,132 to 134
10,CN(C)S(=O)(=O)c1ccc(NC(=O)CCCl)cc1,159 to 161
11,C=CCNC(=O)NC(C)(C)C(=O)O,125 to 127
12,O=S(=O)(c1cccc2cnccc12)N1CCCNCC1,146 to 148
13,Nc1c([N+](=O)[O-])c(=O)oc2ccccc12,259 to 261
14,CCCn1ncc(C(=O)O)c1C1CC1,119 to 121
15,Cc1c(NC(=O)CSCC(=O)O)c(=O)n(-c2ccccc2)n1C,180 to 182
16,O=C(O)C=Cc1cc[nH]c1,183 to 185
17,CC(C)(C)n1ncc2c(=O)[nH]cnc21,226 to 228
18,Cc1nc2cc(N)ccc2o1,72 to 74
19,O=C(O)c1cccc(NC(=O)c2cccc(Br)c2)c1,273 to 275
20,O=Cc1cn(-c2cccc(Cl)c2Cl)nn1,139 to 141
21,CCOc1cc(C(=O)O)c([N+](=O)[O-])cc1OC,213 to 215
22,CC(C)(C)OC(=O)NC(CCS(C)(=O)=O)C(=O)O (configuration not stated),99 to 101
23,Cc1ccc(S(=O)(=O)N2CCCCC2)cc1NC(=O)CCl,107 to 109
24,NS(=O)(=O)c1ccc(CN=C=S)cc1,159 to 161
25,CC(C)(C)OC(=O)N1CCCC(C)(C(=O)O)C1 (configuration not stated),117 to 119
26,O=C(O)CNS(=O)(=O)c1ccc2c(c1)COC2,219 to 221

row,SMILES,melting point [°C]
1,CCCCCCCOc1ccc(C=O)cc1OCC,43 to 47
2,Cc1nc(-c2ccccc2Cl)sc1C(=O)O,217 to 219
3,Cc1ccccc1CC(=O)Nc1ccc(C(=O)O)c(O)c1,222 to 224
4,Cc1cc(C)c(S(N)(=O)=O)cc1C,179 to 181
5,O=C(O)C=CC(=O)NCc1cccnc1,92 to 94
6,N#Cc1ccccc1S(=O)(=O)N1CCC(C(=O)O)CC1,150 to 152
7,NC(=O)Nc1cc(Cl)ccc1C(=O)O,185 to 187
8,Oc1cccc2ccc(N3CCCCC3)nc12,69 to 71
9,Cc1nc(-c2cccs2)c(CC(=O)O)s1,159 to 161
10,COc1ccc(CCCCCC(=O)O)cc1,46 to 48
11,NNC(=O)C1COc2ccccc2O1 (configuration not stated),111 to 113
12,O=S(=O)(NC1CC1)C1CCN(Cc2ccccc2)C1 (configuration not stated),94 to 96
13,Nn1cn[nH]c1=O,169 to 171
14,CC(Cc1nnc(S)o1)c1ccccc1 (configuration not stated),102 to 104
15,Clc1cnc2ccccc2n1,47 to 50
16,O=C(O)C1CCc2c(Cl)cccc21 (configuration not stated),111 to 113
17,O=C(O)c1cc(F)cc(Cl)c1O,210 to 212
18,O=C(c1cccnc1Cl)N1CCCCC1,67 to 69
19,CS(=O)(=O)c1c(F)cc(N)cc1F,169 to 171
20,NS(=O)(=O)CCCCl,63 to 65
21,Brc1ccccc1Oc1ccncc1,68 to 70
22,Cc1cc(SCC(=O)O)nc2ccccc12,117 to 119
23,COc1cccc(N2CC(C(=O)O)CC2=O)c1 (configuration not stated),166 to 168
24,CCCOc1ccc2c(c1)OCC(C(=O)O)=C2,178 to 180
25,O[C@@H]1CCCOc2ccccc21,89 to 91
26,Nc1nccnc1CO,115 to 117
